The results in this text go back to US20250049809A1, “INHIBITORS OF MUTANT IDH1 AND IDH2” (Board of Regents, The University of Texas System, priority 2023, published 2025).

Where only a bound is given, the exact number is not on record here.

In experiment [1] the target is mIDH2R140Q (Homo sapiens (Human), UniProt P48735, R140Q). Kind of experiment: mIDH2 R140Q enzymatic activity assay (NADPH fluorescence). The format is biochemical. Conditions: enzyme assay, 1 hour preincubation; read-out: IDH2R140Q IC50. As to the method:
The enzymatic activity of mIDH2R140Q was assessed by measuring the fluorescence of the NADPH. The assay was performed in 384 well, white ProxiPlates (PerkinElmer, 6008280) in assay buffer containing 50 mM Hepes (Life Technologies, 15630080), 50 mM KCl (Teknova, P0327), 10 mM MgCl2 (Sigma-Aldrich, M1028), 1 mM DTT (Sigma-Aldrich, 43815), 0.02% BSA (Sigma-Aldrich, A3059) at pH 7.5. The final reaction volume was 10 μL. Stock solutions of the test compounds were prepared in 100% DMSO (Sigma, D2650) and serially diluted 1:3 using 100% DMSO. 50 nL of compound were then transferred to the assay plate using the Beckman Coulter ECHO 650 Acoustic Liquid Handler for a final DMSO concentration of 0.5%. 5 μL of a mIDH2R140Q and NADPH (Santa Cruz, SC202725C) mixture were added to the assay plate for a final concentration of 3 nM and 10 μM, respectively. 5 μL of NADPH alone were added to negative control wells followed by a 1 hour preincubation at room temperature. 5 μL of alphaketoglutarate (Sigma-Aldrich, K1128) were added to the assay plate for a final concentration of 300 μM. Fluorescence of NADPH (excitation: 350 nm, emission 450 nm) was immediately measured kinetically for approximately 150 minutes using the BioTek Synergy Neo plate reader.

Experiment [2] concerns the target mIDH1R132H (Homo sapiens (Human), UniProt O75874, R132H). Briefly: mIDH1 R132H enzymatic activity assay (NADPH fluorescence). The settings on record: enzyme assay; read-out: IDH1R132H IC50. The format is biochemical. As to the method:
The enzymatic activity of mIDH1R132H was assessed by measuring the fluorescence of the NADPH. The assay was performed in 384 well, white ProxiPlates (PerkinElmer, 6008280) in assay buffer containing 50 mM Hepes (Life Technologies, 15630080), 50 mM KCl (Teknova, P0327), 10 mM MgCl2 (Sigma-Aldrich, M1028), 1 mM DTT (Sigma-Aldrich, 43815), 0.02% BSA (Sigma-Aldrich, A3059) at pH 7.5. The final reaction volume was 10 μL. Stock solutions of the test compounds were prepared in 100% DMSO (Sigma, D2650) and serially diluted 1:3 using 100% DMSO. 50 nL of compound were then transferred to the assay plate using the Beckman Coulter ECHO 650 Acoustic Liquid Handler for a final DMSO concentration of 0.5%. […] a mIDH1R132H and NADPH (Santa Cruz, SC202725C) mixture were added to the assay plate for a final concentration of 10 nM and 20 μM, respectively. 5 μL of NADPH alone were added to negative control wells. 5 μL of alphaketoglutarate (Sigma-Aldrich, K1128) were added to the assay plate for a final concentration of 200 μM. Fluorescence of NADPH (excitation: 350 nm, emission 450 nm) was immediately measured kinetically for approximately 60 minutes using the BioTek Synergy Neo plate reader.

Experiment [3] concerns the target WT IDH1 (Homo sapiens (Human), UniProt O75874). Kind of experiment: WT IDH1 enzymatic activity assay (NADPH fluorescence). The format is biochemical. The settings on record: enzyme assay. As to the method: The enzymatic activity of WT IDH1 was assessed by measuring the fluorescence of the NADPH generated in the enzymatic reaction. The assay was performed in 384 well, white ProxiPlates (PerkinElmer, 6008280) in assay buffer containing 50 mM Hepes (Life Technologies, 15630080), 50 mM KCl (Teknova, P0327), 10 mM MgCl2 (Sigma-Aldrich, M1028), 1 mM DTT (Sigma-Aldrich, 43815), 0.02% BSA (Sigma-Aldrich, A3059) at pH 7.5. The final reaction volume was 10 μL. Stock solutions of the test compounds were prepared in 100% DMSO (Sigma, D2650) and serially diluted 1:3 using 100% DMSO. 50 nL of compound were then transferred to the assay plate using the Beckman Coulter ECHO 650 Acoustic Liquid Handler for a final DMSO concentration of 0.5%. 5 μL of WT IDH1 were added to the assay plate for a final concentration of 0.5 nM. 5 μL of assay buffer alone were added to negative control wells. 5 μL of an isocitrate (Sigma-Aldrich, 58790) and NADP (Sigma-Aldrich, N5755) mixture were added to the assay plate for a final concentration of 5 μM and 15 μM, respectively. Fluorescence of NADPH (excitation: 350 nm, emission 450 nm) was immediately measured kinetically for approximately 15 minutes using the BioTek Synergy Neo plate reader.

The target of experiment [4] is TF1 IDH2R140Q (Homo sapiens (Human), UniProt P48735, R140Q). Kind of experiment: TF1 IDH2 R140Q 2-HG cellular assay. Conditions: extracellular 2HG, 24 hr treatment, IDH2 mutant-TF1 isogenic cell line. The format is cell-based. As to the method:
The IDH2 mutant-TF1 isogenic cell line (ATCC CRL-20031G) used to test cellular inhibition is an erythroblast cell line that was isolated from the marrow of a patient with erythroleukemia with the IDH2R140Q mutation. These cells are maintained in RPMI-1640 (ATCC 30-2001) culture media with 10% FBS, 10 U/mL Penicillin-Streptomycin, and 2 ng/mL GM-CSF. Thirty thousand cells are plated in polystyrene tissue culture treated 384 well cell culture plates (PerkinElmer 6007680) (30,000 cells/well) approximately 2 hours before compound treatment. Cells are then treated with different concentrations of test compounds (5 μM to 0.3 pM) for 24 hr. Extracellular 2HG levels are measured from cell culture media. For analyte extraction, 30 μL of culture media is transferred to 120 μL 100% acetonitrile in a deep 384 well plate and mixed well, followed by 5 min centrifugation at 3700 rpm at room temperature. 100 μL of supernatant is transferred to a flat bottom 384 well plate. Samples are run on the Agilent RapidFire-Mass Spectrometry instrument to detect 2HG levels. The samples from each well were aspirated for 600 ms and loaded onto a HILIC solid-phase extraction cartridge (Agilent) followed by a wash step for 3000 ms with 90% acetonitrile containing 5 mM ammonium acetate. Analytes were then eluted off the cartridge into the Agilent 6460 Triple Quad mass spectrometer with a 4500 ms elution step using 30% acetonitrile containing 5 mM ammonium acetate. The HILIC cartridge was then re-equilibrated by 90% acetonitrile containing 5 mM ammonium acetate for 500 ms. The 2HG was detected by an Agilent 6460 Triple Quad mass spectrometer in negative ion mode. Multiple reaction monitoring was used to quantify 2HG using the precursor ion and product ion at m/z 147.03 and 128.9, respectively. The percent activity of each sample is calculated by using DMSO and control compound treated references, and IC50 values are obtained using the GeneData Screener data analysis program.

Chain of TF1 IDH2R140Q (P48735 40-452 R140Q): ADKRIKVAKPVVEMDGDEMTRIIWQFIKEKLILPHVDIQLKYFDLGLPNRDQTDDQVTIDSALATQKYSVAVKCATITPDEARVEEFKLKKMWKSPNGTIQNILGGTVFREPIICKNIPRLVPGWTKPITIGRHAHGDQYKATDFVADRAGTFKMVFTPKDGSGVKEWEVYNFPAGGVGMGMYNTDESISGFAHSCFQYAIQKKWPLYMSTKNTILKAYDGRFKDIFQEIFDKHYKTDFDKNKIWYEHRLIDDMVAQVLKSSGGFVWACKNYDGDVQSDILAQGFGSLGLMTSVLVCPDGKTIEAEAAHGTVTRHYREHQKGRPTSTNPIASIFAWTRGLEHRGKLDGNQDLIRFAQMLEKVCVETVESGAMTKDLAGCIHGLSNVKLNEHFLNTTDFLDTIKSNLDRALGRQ
Chain of mIDH2R140Q (P48735 40-452 R140Q): as above
Chain of WT IDH1 (O75874 whole entry): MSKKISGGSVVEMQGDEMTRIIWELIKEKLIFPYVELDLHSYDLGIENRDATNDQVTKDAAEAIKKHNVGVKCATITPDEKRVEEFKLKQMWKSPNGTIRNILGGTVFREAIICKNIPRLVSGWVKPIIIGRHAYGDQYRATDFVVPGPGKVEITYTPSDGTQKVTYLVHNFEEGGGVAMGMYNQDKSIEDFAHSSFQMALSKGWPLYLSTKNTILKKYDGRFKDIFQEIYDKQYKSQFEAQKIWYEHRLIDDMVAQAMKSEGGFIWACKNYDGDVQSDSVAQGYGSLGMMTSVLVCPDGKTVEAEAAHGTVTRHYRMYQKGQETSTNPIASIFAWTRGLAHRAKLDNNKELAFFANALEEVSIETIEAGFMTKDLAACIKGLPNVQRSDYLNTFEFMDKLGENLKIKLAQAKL
Chain of mIDH1R132H (O75874 whole entry R132H): as the sequence (O75874 whole entry) above, with R132H counted along it

For `C=CC(=O)N1CCN(C2CCCC/C=C/CN3C(=O)OCc4cnc(nc43)N[C@@H](C)c3ccc2cc3)CC1` (stereo partly drawn) [Example 3, (3S,E)-5-(4-acryloylpiperazin-1-yl)-3-methyl-1^1,1^4-dihydro-1^2H-2-aza-1(7,1)-pyrimido[4,5-d][1,3]oxazina-4(1,4)-benzenacyclododecaphan-10-en-1^2-one], the IC50 in experiment [1] is 1440 nM; in experiment [2], 3.3 nM; in experiment [3], 3170 nM; in experiment [4], 277 nM.

Take `C=CC(=O)N1CCN(C2CCCCCCCN3C(=O)OCc4cnc(nc43)N[C@@H](C)c3ccc2cc3)CC1` (stereo partly drawn) [Example 4, (3S)-5-(4-acryloylpiperazin-1-yl)-3-methyl-1^1,1^4-dihydro-1^2H-2-aza-1(7,1)-pyrimido[4,5-d][1,3]oxazina-4(1,4)-benzenacyclododecaphan-1^2-one]: the IC50 in experiment [1] was 1680 nM; in experiment [2] it was 4 nM; in experiment [3], greater than 16700 nM; in experiment [4] it was 282 nM.

Usually IC50 stands for the concentration that gives 50% inhibition.
